Test results published in the NIST ThermoML archive (doi:10.1016/j.jct.2004.04.010).
Numbers after ± are expanded uncertainties.

Assay: mn = molality of the nth substance listed, in mol/kg
Conditions: 298.15 K, 101.3 kPa, Liquid

Row | Structure (SMILES) | mass density (m1 = 0.2) | mass density (m1 = 0.4) | mass density (m1 = 0.6) | mass density (m1 = 0.8) | mass density (m1 = 1) | mass density (m1 = 1.2) | mass density (m1 = 0.015) | mass density (m1 = 0.03) | mass density (m1 = 0.05) | mass density (m1 = 0.075) | mass density (m1 = 0.1)
1 | O=C[C@H](O)[C@@H](O)[C@H](O)CO [D-xylose] + O | 1007.72 ± 0.21 kg/m3 | 1017.95 ± 0.26 kg/m3 | 1027.8 ± 0.3 kg/m3 | 1037.28 ± 0.35 kg/m3 | 1046.38 ± 0.39 kg/m3 | 1055.19 ± 0.44 kg/m3 |  |  |  |  | 
2 | O=C[C@H](O)[C@@H](O)[C@@H](O)[C@H](O)CO [(+)-galactose] + O | 1010.68 ± 0.22 kg/m3 | 1023.7 ± 0.28 kg/m3 | 1036.15 ± 0.33 kg/m3 | 1047.98 ± 0.39 kg/m3 | 1059.4 ± 0.45 kg/m3 | 1070.22 ± 0.5 kg/m3 |  |  |  |  | 
3 | [Cl-].[Cs+] [cesium chloride] + O |  |  |  |  |  |  | 998.969 ± 0.14 kg/m3 | 1000.88 ± 0.14 kg/m3 | 1003.43 ± 0.14 kg/m3 | 1006.61 ± 0.14 kg/m3 | 1009.77 ± 0.15 kg/m3
4 | O=C[C@@H](O)[C@H](O)[C@H](O)CO [D-(-)-arabinose] + O | 1008.06 ± 0.2 kg/m3 | 1018.64 ± 0.22 kg/m3 | 1028.67 ± 0.23 kg/m3 | 1038.38 ± 0.24 kg/m3 | 1047.69 ± 0.24 kg/m3 | 1056.36 ± 0.27 kg/m3 |  |  |  |  | 
